Experiment [1] addresses T1, GPR139 (Gi3 activation) (Homo sapiens, UniProt Q6DWJ6).
T1 construct: expressed in transfected cells; host or cells: HEK293A (transient, Lipofectamine 2000)
T1 sequence (Q6DWJ6 1-353): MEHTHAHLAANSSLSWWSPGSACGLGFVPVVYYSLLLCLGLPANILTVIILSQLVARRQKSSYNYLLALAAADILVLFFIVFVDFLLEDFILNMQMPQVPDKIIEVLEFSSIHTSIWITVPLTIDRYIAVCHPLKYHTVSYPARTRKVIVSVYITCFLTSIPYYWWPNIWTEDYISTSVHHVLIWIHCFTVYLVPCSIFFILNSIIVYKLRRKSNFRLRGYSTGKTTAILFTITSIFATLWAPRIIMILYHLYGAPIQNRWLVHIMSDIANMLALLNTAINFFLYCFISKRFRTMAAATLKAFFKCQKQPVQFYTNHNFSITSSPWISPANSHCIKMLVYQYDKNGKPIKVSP
Description: BRET G protein activation (dissociation) assay, Gi3, HEK293A. Format: cell-based. The conditions noted are these: for G protein activation, Gi3: individual replicates, listed as JNJ (S). As for the experimental part: (§1) Primary screening and pharmacological characterization of compounds were performed using a CHO-K1 cell line that stably expresses human GPR139 (GPR139-CHOk1). The GPR139-CHOk1 cell line was kindly provided by H. Lundbeck A/S, Denmark[24]. GPR139-CHOk1 cells were grown in Ham’s F-12 Kaighn’s Modification Medium (ThermoFisher #21127030) supplemented with 10% dialyzed fetal bovine serum (US origin, ThermoFisher #26400044), 100 units/mL Penicillin-Streptomycin (ThermoFisher #15140122), and 1 mg/mL Geneticin (ThermoFisher #11811031). […] M1R-CHOk1 cells were purchased from The Missouri S&T cDNA Resource Center (#CEM100TN00). M1R-CHOk1 cells were grown in Ham’s F12 Medium (ThermoFisher #21765029) supplemented with 10% fetal bovine serum (Brazilian origin, ThermoFisher #10270106), 100 units/mL Penicillin-Streptomycin, and 0.25 mg/mL Geneticin. HEK293A cells transiently transfected with GPR139 were used for additional pharmacological assessment of signaling pathways activated by GPR139. HEK239A cells were generously provided by Dr. Asuka Inoue, Tohoku University, Japan. HEK293A cells were grown in Dulbecco’s Modified Eagle Medium (ThermoFisher #31966047) supplemented with 10% dialyzed fetal bovine serum and 100 units/mL Penicillin-Streptomycin. Cell lines were maintained at 37 °C in humidified incubator equilibrated with 5% CO2.
(§2) The G protein dissociation assay developed by the lab of Kirill A. Martemyanov was used to measure the coupling of multiple G proteins by GPR139[57]. The assay was performed as described previously with minor modifications. HEK293A cells were reverse transfected 20–24 h prior to assay. 50,000 cells were plated in each well of white opaque tissue culture treated 96-well plates (PerkinElmer #6005680) previously coated with poly-D-lysine. Transfection solutions were prepared as described, and 10 µL transfection solution was mixed with 100 µL cells in each well. The cells in each well were transfected with 18.9 ng GPR139, 6.3 ng Venus 1-155 Gγ2, 6.3 ng Venus 159-239 Gβ1, 6.3 ng masGRK3ct-NanoLuc and 12.6 ng Gαi2, 12.6 ng Gαi3, 12.6 ng GαoA, 12.6 ng Gαq or 25.2 ng Gα12 using 375 nL Lipofectamine 2000 Transfection Reagent. Transfections with Gαq and Gα12 contained 6.3 ng DNA of the active subunit S1 of pertussis toxin (PTX-S1). Each transfection was normalized to 150 ng total DNA with pcDNA3.1. The BRET biosensors were a kind gift from the Martemyanov lab. On the day of the experiment the cells were washed with HEPES buffer. Test compounds were diluted in HEPES buffer from DMSO stocks (final DMSO concentration of maximally 0.3%). NanoLuc Luciferase substrate NanoGlo—furimazine (Promega #N1120) was diluted 1000-fold (final) in HEPES buffer. NanoGlo and test compounds were added, and measurements were performed after 10 s for Gi3, 15 s for Gi2 and GoA, 20 s for Gq, and 90 s for G12—the timepoint where maximal signal occurred with each G protein, ensuring proper determination of the potency for the G protein coupling. Simultaneous dual emission was measured at 535 nm and 475 nm on LUMIstar Omega Microplate Reader (BMG Labtech) at room temperature. The BRET ratio of 535 nm/475 nm (Venus/NanoLuc), reflecting the dissociation of the G protein heterotrimer, was used to determine the G protein activation. The basal BRET ratio obtained with buffer condition was subtracted from the absolute BRET ratio at a given test compound concentration, and the responses were normalized to the one obtained with 10 µM JNJ-63533054 for the activation of Gi2.
(§3) Pharmacological data and statistical analyses were performed in GraphPad Prism v9–10 (Graphpad Software Inc., San Diego, CA), which are also specifically described in the figure and table legends. […]
(In general: BRET reads energy transfer from a luciferase to a nearby fluorophore.)

Experiment [2] deals with T2, GPR139 (GoA activation) (Homo sapiens, UniProt Q6DWJ6).
T2 construct: expressed in transfected cells; host or cells: HEK293A (transient, Lipofectamine 2000)
T2 sequence (Q6DWJ6 1-353): T1 sequence (Q6DWJ6 1-353)
Description: BRET G protein activation (dissociation) assay, GoA, HEK293A. Format: cell-based. Particulars: for G protein activation, GoA: individual replicates, listed as JNJ (S). As to the method: as §1, §2, §3

Where [3] appears, read: HEK293-A, normalized to JNJ-63533054 (JNJ(S)).

Experimental findings from article PMC12775434, “Ultra-large virtual screening unveils potent agonists of the neuromodulatory orphan receptor GPR139” (Nature Communications, 2025) are described below.

A word on the Emax: it is the maximal effect, on the per cent scale that the assay sets.

Where “and” joins values, the source holds several entries; their conditions need not be identical. Equal values may be shown once.

On to `CC(NC(=O)CNC(=O)c1cccc(Cl)c1)c1ccccc1` (centres unmarked) [JNJ-63533054, reference compound], for which the Emax in experiment [1] (setting [3]) came out at 56 ± 4%; in experiment [2] (setting [3]) it was 114 ± 2%. Besides, the EC50 was 0.1 µM in experiment [1] (Supplementary Table 6, read-out: pEC50 Gi3 (converted)) and 0.0794 µM in experiment [2] (Supplementary Table 6). The “G protein activation, Gi3” value in experiment [1] (log [compound] M -4.5) is 63 % of JNJ-63533054 at Gi2 and 48 % of JNJ-63533054 at Gi2 and 54 % of JNJ-63533054 at Gi2; in experiment [1] (log [compound] M -5.0), 59 % of JNJ-63533054 at Gi2 and 44 % of JNJ-63533054 at Gi2 and 57 % of JNJ-63533054 at Gi2; in experiment [1] (log [compound] M -5.5), 57 % of JNJ-63533054 at Gi2 and 41 % of JNJ-63533054 at Gi2 and 51 % of JNJ-63533054 at Gi2; in experiment [1] (log [compound] M -6.0) it was 52 % of JNJ-63533054 at Gi2 and 39 % of JNJ-63533054 at Gi2 and 42 % of JNJ-63533054 at Gi2; in experiment [1] (log [compound] M -6.5) it was 48 % of JNJ-63533054 at Gi2 and 28 % of JNJ-63533054 at Gi2 and 40 % of JNJ-63533054 at Gi2; in experiment [1] (log [compound] M -7.0) it was 37 % of JNJ-63533054 at Gi2 and 22 % of JNJ-63533054 at Gi2 and 29 % of JNJ-63533054 at Gi2. Further, the “G protein activation, Gi3” value is 26 % of JNJ-63533054 at Gi2 and 11 % of JNJ-63533054 at Gi2 and 24 % of JNJ-63533054 at Gi2 in experiment [1] (log [compound] M -7.5); 10 % of JNJ-63533054 at Gi2 and 5.6 % of JNJ-63533054 at Gi2 and 14 % of JNJ-63533054 at Gi2 in experiment [1] (log [compound] M -8.0). The “G protein activation, GoA” value is 119 % of JNJ-63533054 at Gi2 (2×) and 112 % of JNJ-63533054 at Gi2 in experiment [2] (log [compound] M -4.5); 117 % of JNJ-63533054 at Gi2 (2×) and 106 % of JNJ-63533054 at Gi2 in experiment [2] (log [compound] M -5.0); 113 % of JNJ-63533054 at Gi2 and 106 % of JNJ-63533054 at Gi2 (2×) in experiment [2] (log [compound] M -5.5); 108 % of JNJ-63533054 at Gi2 and 94 % of JNJ-63533054 at Gi2 and 102 % of JNJ-63533054 at Gi2 in experiment [2] (log [compound] M -6.0); 97 % of JNJ-63533054 at Gi2 and 82 % of JNJ-63533054 at Gi2 and 91 % of JNJ-63533054 at Gi2 in experiment [2] (log [compound] M -6.5); 74 % of JNJ-63533054 at Gi2 and 64 % of JNJ-63533054 at Gi2 and 65 % of JNJ-63533054 at Gi2 in experiment [2] (log [compound] M -7.0). Moreover, the “G protein activation, GoA” value is 43 % of JNJ-63533054 at Gi2 and 34 % of JNJ-63533054 at Gi2 and 33 % of JNJ-63533054 at Gi2 in experiment [2] (log [compound] M -7.5); 17 % of JNJ-63533054 at Gi2 and 12 % of JNJ-63533054 at Gi2 and 13 % of JNJ-63533054 at Gi2 in experiment [2] (log [compound] M -8.0).
